Laboratory results reported in US10961215B2, “N-aryl and N-heteroaryl piperidine derivatives as liver X receptor beta agonists, compositions, and their use” (Merck Sharp & Dohme Corp., priority 2016, dated 2021).

Experiments:
[1] = biological target: T1, GST tagged LXRalpha LBD (ligand binding domain) (Homo sapiens, UniProt Q13133); assay: LanthaScreen TR-FRET Liver X Receptor Coactivator Assay, LXR alpha-LBD (co-activator recruitment; IP and % Emax relative to T0901317); assay type: biochemical; settings: for LXR alpha IP (nM): Inflection Point of co-activator recruitment, LXR alpha-LBD, TR-FRET; for Emax: efficacy at max dose in relation to reference T0901317, LXR alpha-LBD, read-out: LXR alpha actiivty at max dose (%)
T1 construct: purchased Invitrogen pv4655
T1 sequence (Q13133 209-447 limits assumed): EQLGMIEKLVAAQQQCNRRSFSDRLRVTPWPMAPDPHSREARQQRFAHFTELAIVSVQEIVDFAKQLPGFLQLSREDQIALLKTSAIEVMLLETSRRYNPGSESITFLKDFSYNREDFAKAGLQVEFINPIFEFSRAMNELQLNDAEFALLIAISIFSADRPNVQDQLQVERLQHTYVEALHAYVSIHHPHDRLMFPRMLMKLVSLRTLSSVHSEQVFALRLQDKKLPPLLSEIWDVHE
Outline: (§1)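 Agonist-induced recruitment of a fluorescein-tagged coactivator peptide to the LBD is detected via terbium anti-GST TR-FRET.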

[2] = biological target: T2, GST tagged LXRbeta LBD (ligand binding domain) (Homo sapiens, UniProt P55055); assay: LanthaScreen TR-FRET Liver X Receptor Coactivator Assay, LXR beta-LBD (co-activator recruitment; IP and % Emax relative to T0901317); assay type: biochemical; settings: for EC50: Inflection Point of co-activator recruitment, LXR beta-LBD, TR-FRET; for Emax: efficacy at max dose in relation to reference T0901317, LXR beta-LBD, read-out: LXR beta actiivty at max dose (%)
T2 construct: purchased Invitrogen pv4658.pps
T2 sequence (P55055 222-460 limits assumed): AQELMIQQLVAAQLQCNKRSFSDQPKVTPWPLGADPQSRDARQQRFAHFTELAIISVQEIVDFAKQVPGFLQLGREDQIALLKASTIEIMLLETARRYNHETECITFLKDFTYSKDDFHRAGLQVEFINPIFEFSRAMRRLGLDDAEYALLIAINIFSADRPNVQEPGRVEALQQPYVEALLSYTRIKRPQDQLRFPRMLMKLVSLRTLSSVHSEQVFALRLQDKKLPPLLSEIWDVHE
Outline: as §1

| LXR alpha IP (nM) [1] | Emax [1] [%] | EC50 [2] [nM] | Emax [2] [%] | SMILES |
| --- | --- | --- | --- | --- |
| No IP | 13 | 53 | 39 | COc1cccc([C@@](O)(C(=O)N(C)[C@H]2C[C@@H](C3CCN(c4ccc(C(=O)N(C)C)c(Cl)n4)CC3)C2)C(F)(F)F)c1 [Example 17-4, cis-2-chloro-N,N-dimethyl-6-(4-(-3-((R)-3,3,3-trifluoro-2-hydroxy-2-(3-methoxyphenyl)-N-methylpropanamido)cyclobutyl)piperidin-1-yl)nicotinamide] |
| No IP | 0 | 148 | 20 | CN(C)C(=O)c1ccc(N2CCC([C@H]3C[C@@H](N(C)C(=O)[C@](O)(c4cccc(OC5CC5)c4)C(F)(F)F)C3)CC2)nc1Cl [Example 17-5, Cis-2-chloro-6-(4-(-3-((R)-2-(3-cyclopropoxyphenyl)-3,3,3-trifluoro-2-hydroxy-N-methylpropanamido)cyclobutyl)piperidin-1-yl)-N,N-dimethylnicotinamide] |
| No IP | 12 | 131 | 56 | CN(C)C(=O)c1ccc(N2CCC(C[C@H]3C[C@H]3CN(C)C(=O)[C@](O)(c3ccccc3)C(F)(F)F)CC2)nc1Cl [Example 18-1, 2-chloro-N,N-dimethyl-6-(4-(((1S,2R)-2-(((R)-3,3,3-trifluoro-2-hydroxy-N-methyl-2-phenylpropanamido)methyl)cyclopropyl)methyl)piperidin-1-yl)nicotinamide] |
| No IP | 0 | 124 | 44 | COc1cccc([C@@](O)(C(=O)N(C)C[C@@H]2C[C@@H]2CC2CCN(c3ccc(C(=O)N(C)C)c(Cl)n3)CC2)C(F)(F)F)c1 [Example 18-2, 2-chloro-N,N-dimethyl-6-(4-(((1S,2R)-2-(((R)-3,3,3-trifluoro-2-hydroxy-2-(3-methoxyphenyl)-N-methylpropanamido)methyl)cyclopropyl)methyl)piperidin-1-yl)nicotinamdie] |
| No IP | 0 | 518 | 25 | COc1cccc([C@](O)(C(=O)N(C)C[C@@H]2C[C@@H]2CC2CCN(c3ccc(C(=O)N(C)C)c(Cl)n3)CC2)C(F)(F)F)c1 [Example 18-3, 2-chloro-N,N-dimethyl-6-(4-(((1S,2R)-2-(((S)-3,3,3-trifluoro-2-hydroxy-2-(3-methoxyphenyl)-N-methylpropanamido)methyl)cyclopropyl)methyl)piperidin-1-yl)nicotinamide] |
| No IP | 15 | 66 | 57 | CN(C)C(=O)c1ccc(N2CCC(C[C@@H]3C[C@H]3CN(C)C(=O)[C@](O)(c3ccccc3)C(F)(F)F)CC2)nc1Cl [Example 18-4, 2-chloro-N,N-dimethyl-6-(4-(((1R,2R)-2-(((R)-3,3,3-trifluoro-2-hydroxy-N-methyl-2-phenylpropanamido)methyl)cyclopropyl)methyl)piperidin-1-yl)nicotinamide] |
